For the assay, the system named is Plasmodium falciparum. The assay is described as follows: GSK_TCMDC: Inhibition of Plasmodium falciparum 3D7 in whole erythrocytes, using parasite LDH activity as an index of growth. The assay is classed as functional, organism-based. The following applies: Plasmodium falciparum, 3D7.

On to `CCCN(Cc1nnc(-c2cccs2)o1)C(=O)CSc1nnnn1-c1cc(C)cc(C)c1`, for which the XC50 came out at 500 nM.
For `CCC(C)NC(=O)Nc1cccc(-c2cccc(-c3nc4cccc(C)c4[nH]3)c2)c1` (stereo not given), the XC50 turned out to be 809 nM.
With `CCNc1cc(C(=O)N[C@@H](Cc2ccccc2)[C@H](O)CNCCc2cc(OC)cc(OC)c2)cc(N2CCCCS2(=O)=O)c1` the figure was 1140 nM.
With `CCOc1c(Br)cc(C)cc1CNCCCNc1nc2ccccc2[nH]1` the figure was 666 nM.
With `CC1CCN(CC[C@H]2CCCN2S(=O)(=O)c2cccc(NC(=O)c3ccc(-c4ccccc4)cc3)c2)CC1` the figure was 1260 nM; with `CCN(CC)CCON=Cc1cc(C)c2[nH]c3ccc(OCc4ccccc4)cc3c2c1C`, 972 nM; with `O=C1C(C2CCC(c3ccc(Cl)cc3)CC2)=C2OCC3COC2(O3)c2ccccc21` (stereo not given), 39 nM.
Take `Clc1ncnc2ncn(Cc3cccc(Br)c3)c12`: the XC50 was determined as 1060 nM.
The compound `O=S(=O)(Nc1cccc(CCN2CCCCC2CCN2CCCC2)c1)c1ccc(-c2ccccc2)cc1` (stereo not given) returned an XC50 of 1090 nM.
With `O=C(Nc1ccc(Br)cc1)c1cc(Br)ccc1NS(=O)(=O)c1cc(C(F)(F)F)cc(C(F)(F)F)c1` the figure was 885 nM; with `Cc1cc2nc(-c3ccc(C(=O)NC4CCN(Cc5ccccc5)CC4)s3)[nH]c2cc1C`, 771 nM.
In turn, `Cc1nc2nc(N)nc(N)c2c(C)c1Cc1cccc(F)c1` showed an XC50 of 341 nM.
With `Cc1ccc(C(=O)Nc2ccc(Nc3ccnc4cc(-c5nccs5)ccc34)cc2O)cc1` the figure was 47.8 nM.
With `COc1cccc2[nH]c(NCCCNCc3cc(Br)cc(Br)c3)nc12` the figure was 950 nM.
With `COc1cccc(Nc2nc(C)cc(NC3CCN(Cc4ccccc4)CC3)n2)c1` the figure was 693 nM.
Turning to `CCC(C)Oc1ccc2nc(N)nc(N)c2c1Cl` (stereo not given), the XC50 stood at 177 nM.
With `CN(C)c1cccc(-c2cnc3ccc(NCc4cccc(Cl)c4)nn23)c1` the figure was 700 nM; with `O=C(Nc1ccc(Cn2ncc(N3CCCNCC3)c(Cl)c2=O)cc1)Nc1cc(Cl)cc(Cl)c1`, 866 nM; with `CCOc1cc(CC)ccc1C1CCN(CCN2CCC(NC(=O)c3ccc(-c4ccc(C(C)=O)cc4)cc3)CC2)CC1`, 226 nM.
With `CCCCCCCc1cc(O)c2c(c1)OC(C)(C)c1ccncc1-2` the figure was 1150 nM; with `CN(C)c1cccc2c(S(=O)(=O)Nc3cccc(CCN4CCC(N5CCCCC5)CC4)c3)cccc12`, 979 nM.
With `COc1ccc2nccc([C@@H](O)CN3CCC(NC(=O)C(c4ccsc4)N4CCN(c5ccccc5OC)CC4)CC3)c2c1` (stereo not given in full) the figure was 832 nM.
Consider `CCCCNCc1ccc(-c2nc(CN(Cc3ccc(Cl)c(Cl)c3)S(=O)(=O)c3ccc(NC(C)=O)cc3)cs2)cc1`, for which the XC50 stood at 1030 nM.
Turning to `Oc1ccc(Cl)cc1CN1CCCC(COC(c2ccc(F)cc2)c2ccc(F)cc2)C1` (stereo not given), the XC50 amounted to 677 nM.
With `CCCC(CNCc1ccccc1)CNc1cc(=O)c2ccccc2[nH]1` (stereo not given) the figure was 1020 nM; with `CS(=O)(=O)c1cccc(-c2cnc(N)c3cc(-c4ccc5c(c4)OCO5)ccc23)c1`, 1040 nM.
With `O=C(N[C@H]1CCN(Cc2ccc(OCCN3CCNCC3)c(Br)c2)C1)c1ccc(Cl)c(Cl)c1` the figure was 484 nM; with `CCOC(=O)c1c(C)noc1Nc1cccc(C)c1C`, 416 nM.
With `CCCCN1C(=O)C2CC(=O)CC(C3CCCCC3)C2C1=O` (stereo not given) the figure was 888 nM; with `CCCCCCNC(=O)C1Cc2c([nH]c3cc(Cl)ccc23)C2(CCN(Cc3ccccc3)CC2)N1` (stereo not given), 903 nM; with `CCc1cc2c(Sc3nc4ccccc4[nH]3)ncnc2s1`, 823 nM.
Compound `COc1ccccc1/C=C/C(=O)NCCC1CCN(CCCCCNC(=O)/C=C/c2ccc(Cl)c(Cl)c2)CC1` came in with an XC50 of 807 nM.
In turn, `C(=NNc1nc2ccccc2[nH]1)c1ccccc1OCc1ccccc1` returned an XC50 of 256 nM.
With `COc1ccccc1NC(=O)Nc1cccc(-c2cccc(-c3nc4cc(C(F)(F)F)ccc4[nH]3)c2)c1` the figure was 120 nM; with `Cc1ccc(C(C)C)c(Oc2cnc(NC(CO)c3ccccc3)nc2N)c1` (stereo not given), 962 nM.
